Values after ≈ are worked out from the molar mass of the structure shown.

Usually solubility (kinetic) stands for solubility judged after dilution from a stock solution rather than from solid.

The conditions of this data set: buffer; pH 7.4; 200.0 µM.
Consider `CN1C(=O)/C(=C/c2ccc(O)c([N+](=O)[O-])c2)N(C)C1=S`, for which the solubility (kinetic) came out at 4.5 µg/mL (≈ 15.3 µM).

In the case of `CCc1sc(NC(=O)CN2CCC(C(N)=O)CC2)nc1-c1ccccc1`, the kinetic solubility is over 55.9 µg/mL. `CC(C)(C)C(=O)O/N=C(\N)c1ccc(Br)cc1`: the solubility (kinetic) came out at 30.3 µg/mL (≈ 101 µM). Turning to `CCOC(=O)C(=O)N/N=C(/c1ccccc1)c1ccc(OC)cc1`, the solubility (kinetic) was over 49 µg/mL. As to `Cn1c(=NC(=O)COc2ccccc2)sc2cccc(F)c21`, the kinetic solubility is under 0.3 µg/mL. As for `O=C1COc2ccccc2N1Cc1ccc(Cl)cc1`, the figure is 10.3 µg/mL (≈ 37.6 µM); as for `O=C(NCc1ccc2c(c1)OCO2)Nc1ccc([N+](=O)[O-])cc1`, 0.9 µg/mL (≈ 2.85 µM). With `O=C(CCNc1cccc(F)c1)c1cc2ccccc2o1`, the kinetic solubility is under 0.6 µg/mL.

The compound `COc1ccccc1C(=O)NCCC(=O)N(C)Cc1ccc(C)o1` had a solubility (kinetic) of over 49.6 µg/mL.

`O=C(O)C1CCN(S(=O)(=O)c2cccc3cccnc23)CC1` registered a solubility (kinetic) of over 48.1 µg/mL. In the case of `CCN(CC)P(c1n(C)cc[n+]1C)N(CC)CC.[I-]`, the kinetic solubility worked out at 46.9 µg/mL. `CCCCS(=O)(=O)N1CCC(C(=O)NCC2CCCO2)CC1` (stereo not drawn) had a solubility (kinetic) of 46 µg/mL (≈ 138 µM). Compound `Cc1cccc(C(=O)NCC(=O)N2CCCCCCC2)c1` displayed a solubility (kinetic) of over 43.3 µg/mL.

As for `CC(C)(C)c1ccc(-c2noc(CNC(=O)c3ccco3)n2)cc1`, the kinetic solubility worked out at 3.8 µg/mL (≈ 11.7 µM). The value for `COc1ccccc1/C=C(\C#N)C(=O)c1cccn1C` was 9.7 µg/mL (≈ 36.4 µM); that for `O=C1NC(=Nc2ccccc2)S/C1=C/c1cccnc1` was 1.2 µg/mL (≈ 4.27 µM); that for `CC(=O)Nc1ccc(S(=O)(=O)NCCC(=O)N2CCN(c3ccccc3Cl)CC2)cc1` was over 69.7 µg/mL.

Take `C=CCCC(=O)N1CCCC(Cc2cccc(Cl)c2)(C(=O)OCC)C1` (stereo not drawn): the solubility (kinetic) was over 54.6 µg/mL.

Take `Nc1ccc(S(=O)(=O)Nc2nc3ccccc3o2)cc1`: the kinetic solubility was over 43.4 µg/mL. As to `O=C(Cc1ccc(Cl)cc1)NCCCNC(=O)c1cccnc1`, the kinetic solubility amounted to 46.2 µg/mL (≈ 139 µM). As for `CCSc1ccc(C(=O)NCC(=O)O)cc1`, the figure is over 35.9 µg/mL; as for `Cc1ccc2nc(SCC(=O)N3CCN(c4ccccc4)CC3)[nH]c2c1`, 1.7 µg/mL (≈ 4.64 µM).

As for `Cl.Nc1cc(Cl)ccc1N1CCCCCC1`, the kinetic solubility came out at 12.4 µg/mL. For the compound `O=C(Cc1ccccc1)N1CCN=C1SCc1cccc([N+](=O)[O-])c1`, the kinetic solubility came out at 9.7 µg/mL (≈ 27.3 µM). For the compound `O=S(=O)(c1ccc(F)cc1)N1CN2CCN(C2)C1`, the solubility (kinetic) was over 40.7 µg/mL. In the case of `CC(C)COc1ccc(C(=S)N2CCCC2)cc1`, the kinetic solubility was found to be 21.2 µg/mL (≈ 80.5 µM).

As to `Cn1cccc1/C=N/NC(=O)Cc1cccs1`, the kinetic solubility was over 37.1 µg/mL.

Compound `O=C(CN1CCN(c2ccccn2)CC1)Nc1ccccc1F` returned a kinetic solubility of 42.3 µg/mL (≈ 135 µM). Take `CC(=O)N(CCC(c1ccco1)C(C)C)Cc1ccc(OC(C)C)cc1` (stereo not drawn): the solubility (kinetic) was found to be 19.5 µg/mL (≈ 54.5 µM). As to `O=C(Nc1ccn([C@H]2CC[C@@H](CO)O2)c(=O)n1)c1ccccc1`, the kinetic solubility is over 47.3 µg/mL. The value for `N/C(=N\OC(=O)c1cc([N+](=O)[O-])ccc1Cl)c1ccccn1` was 11.2 µg/mL (≈ 34.9 µM); that for `CCCCc1ncc(CN2CCN(Cc3ccc(C)cc3)C(CCO)C2)[nH]1` (stereo not drawn) was 49.1 µg/mL (≈ 133 µM); that for `CCc1noc(C)c1C(=O)NCCc1ccc(F)cc1` was over 41.4 µg/mL. As to `COc1ccc(CNc2nc3ccccc3n2C(C)C)c(O)c1`, the kinetic solubility was 25.7 µg/mL (≈ 82.5 µM). As to `CC1CCCN(C(=O)CSc2nnc(-c3ccncc3)n2C)C1` (stereo not drawn), the kinetic solubility was over 49.7 µg/mL. In the case of `CN(C)c1ccc(C(=S)N2CCCC2)cc1Br`, the solubility (kinetic) was determined as 44 µg/mL (≈ 140 µM). In the case of `CCn1c(C)c(C(=O)NCCc2ccccc2)c2cc(OC)ccc21`, the kinetic solubility was found to be 23 µg/mL (≈ 68.4 µM).

Compound `CCC(=O)Nc1cc(OC)cc(OC)c1` gave a kinetic solubility of over 31.4 µg/mL. As to `Cc1cc(C)c(S(=O)(=O)c2ccccc2Cl)c(=O)[nH]1`, the solubility (kinetic) amounted to 42.2 µg/mL (≈ 142 µM).

With `NC(=O)C1CCN(CC(=O)Nc2ccc3c(c2)OCCO3)CC1`, the kinetic solubility is over 47.9 µg/mL. `Cc1csc(SCC(=O)NC(=O)C2CCCCC2)n1`: the solubility (kinetic) is over 44.8 µg/mL. For `Cc1cc(=O)n2c3ccccc3n(C)c2n1`, the solubility (kinetic) was over 32 µg/mL. For the compound `O=C(NCCO)/C(=C/c1cccc([N+](=O)[O-])c1)NC(=O)c1ccco1`, the solubility (kinetic) was over 51.8 µg/mL. Compound `COc1ccc(C2=COc3ccccc3C(=O)N2)cc1` had a solubility (kinetic) of 11.4 µg/mL (≈ 42.7 µM).

`CC1(CO)COC(c2ccccc2)=N1` (stereo not drawn) displayed a kinetic solubility of over 28.7 µg/mL.

As for `CC(C)(C)OC(=O)NCCCCCO`, the kinetic solubility was over 30.5 µg/mL. In turn, `CCCCCCCCNc1nc(Cl)nc(NCCN2CCOCC2)n1` came in with a solubility (kinetic) of 0.5 µg/mL (≈ 1.35 µM). Regarding `CN(C)c1nc(-c2ccccc2)ns1`, the kinetic solubility amounted to 12.5 µg/mL (≈ 60.9 µM). In turn, `CN1C(=O)C2(OCC(C)([N+](=O)[O-])CO2)c2ccccc21` (stereo not drawn) displayed a solubility (kinetic) of 21.7 µg/mL (≈ 78 µM). On to `COc1ccccc1OCC(O)COC(N)=O` (stereo not drawn), for which the kinetic solubility turned out to be 29.9 µg/mL (≈ 124 µM). Turning to `CCOC(=O)Cn1nc(C)c([N+](=O)[O-])c1C`, the kinetic solubility was over 34.1 µg/mL.

For `CCCOc1ccccc1/C=C(\C#N)C(=O)Nc1cccnc1`, the solubility (kinetic) came to 6.8 µg/mL (≈ 22.1 µM). With `O=C1CCCN1CCCNS(=O)(=O)c1ccc(F)c(F)c1`, the kinetic solubility was over 47.8 µg/mL.

These data come from PubChem BioAssay AID1996.
